IC50 data for 20 compounds are collected here from patent US8119795B2, “Triazole derivatives II” (Merck Patent GmbH, priority 2006, dated 2012).

The target in this assay is T1, Recombinant human HSP90α (Homo sapiens, UniProt P07900).
T1 construct: host or cells: E. coli
Description: HSP90 radioligand filter binding test ([3H]17AAG competition). As to conditions: [3H]17AAG 0.08 μM, HSP90 1.5 μg/assay, 22° C., 30 min; read-out: IC50* (HSP90 inhibition). On the procedure:
Test Method for the Measurement of HSP90 Inhibitors
In the specific case, a radioligand filter binding test is used. The radioligand used here is tritium-labelled 17-allylaminogeldanamycin, [3H]17AAG. This filter binding test allows a targeted search for inhibitors which interfere with the ATP binding site.
Recombinant human HSP90α (E. coli expressed, 95% purity);
HEPES filter buffer (50 mM HEPES, pH 7.0, 5 mM MgCl2, BSA 0.01%)
Multiscreen F B (1 μm) filter plate (Millipore, MAFBNOB 50).
The 96-well microtitre filter plates are firstly irrigated and coated with 0.1% of polyethylenimine.
The test is carried out under the following conditions:
Reaction temperature 22° C.
Reaction time: 30 min., shaking at 800 rpm
50 mM HEPES HCl, pH 7.0, 5 mM MgCl2, 0.01% (w/v) BSA
At the end of the reaction, the supernatant in the filter plate is removed by suction with the aid of a vacuum manifold (Multiscreen Separation System, Millipore), and the filter is washed twice.
The filter plates are then measured in a beta counter (Microbeta, Wallac) with scintillator (Microscint 20, Packard).
“% of control” is determined from the “counts per minutes” values and the IC50 value of a compound is calculated therefrom.
In general, IC50 refers to the concentration at which inhibition is half-maximal. In the case of `COc1cccc(CN(C)C(=O)c2cc(-c3nnc(O)n3-c3ccccc3C)c(O)cc2O)c1` [Compound A6a, 5-{2,4-Dihydroxy-5-[N-(3-methoxybenzyl)-N-methylaminocarbonyl]phenyl}-4-(2-methylphenyl)-3-hydroxy-4H-1,2,4-triazole], the concentration for half-maximal inhibition (IC50) was 0.01 to 1 µM. As to `Cc1ccccc1-n1c(O)nnc1-c1cc(C(=O)N(C)Cc2ccccc2F)c(O)cc1O` [Compound A9, 5-{2,4-Dihydroxy-5-[N-(2-fluorobenzyl)-N-methylaminocarbonyl]phenyl}-4-(2-methylphenyl)-3-hydroxy-4H-1,2,4-triazole], the IC50 lay in the range of 0.01 to 1 µM. Consider `Cc1ccccc1-n1c(O)nnc1-c1cc(C(=O)N(C)Cc2ccc(F)cc2)c(O)cc1O` [Compound A12, 5-{2,4-Dihydroxy-5-[N-(4-fluorobenzyl)-N-methylaminocarbonyl]phenyl}-4-(2-methylphenyl)-3-hydroxy-4H-1,2,4-triazole], for which the IC50 lay in the range of 0.01 to 1 µM.

Turning to `Cc1ccccc1-n1c(O)nnc1-c1cc(C(=O)N(C)Cc2cccc(F)c2)c(O)cc1O` [Compound A15, 5-{2,4-Dihydroxy-5-[N-(3-fluorobenzyl)-N-methylaminocarbonyl]phenyl}-4-(2-methylphenyl)-3-hydroxy-4H-1,2,4-triazole], the concentration for half-maximal inhibition (IC50) lay in the range of 0.01 to 1 µM.

`Cc1ccccc1-n1c(O)nnc1-c1cc(C(=O)N(C)Cc2cccc(Cl)c2)c(O)cc1O` [Compound A24, 5-{2,4-Dihydroxy-5-[N-(3-chlorobenzyl)-N-methylaminocarbonyl]phenyl}-4-(2-methylphenyl)-3-hydroxy-4H-1,2,4-triazole]: the half-inhibitory concentration (IC50) was 0.01 to 1 µM. Under `Cc1ccccc1-n1c(O)nnc1-c1cc(C(=O)N(C)Cc2ccccc2Cl)c(O)cc1O` [Compound A27, 5-{2,4-Dihydroxy-5-[N-(2-chlorobenzyl)-N-methylaminocarbonyl]phenyl}-4-(2-methylphenyl)-3-hydroxy-4H-1,2,4-triazole] stands 0.01 to 1 µM. As to `COc1ccc(Cl)cc1CN(C)C(=O)c1cc(-c2nnc(O)n2-c2ccccc2C)c(O)cc1O` [Compound A51, 5-{2,4-Dihydroxy-5-[N-(3-chloro-6-methoxybenzyl)-N-methylaminocarbonyl]phenyl}-4-(2-methylphenyl)-3-hydroxy-4H-1,2,4-triazole], the IC50 lay in the range of 0.01 to 1 µM. For the compound `Cc1ccccc1-n1c(O)nnc1-c1cc(C(=O)N(C)Cc2ccco2)c(O)cc1O` [Compound A57, 5-{2,4-Dihydroxy-5-[N-(furan-2-ylmethyl)-N-methylaminocarbonyl]phenyl}-4-(2-methylphenyl)-3-hydroxy-4H-1,2,4-triazole], the IC50 lay in the range of 0.01 to 1 µM. With `CN(Cc1ccco1)C(=O)c1cc(-c2nnc(O)n2-c2ccccc2)c(O)cc1O` [Compound A57a, 5-{2,4-Dihydroxy-5-[N-(furan-2-ylmethyl)-N-methylaminocarbonyl]phenyl}-4-phenyl-3-hydroxy-4H-1,2,4-triazole], the IC50 lay within 0.01 to 1 µM. The same measure for `Cc1cccc(-n2c(O)nnc2-c2cc(C(=O)N(C)Cc3ccco3)c(O)cc2O)c1` [Compound A57b, 5-{2,4-Dihydroxy-5-[N-(furan-2-ylmethyl)-N-methylaminocarbonyl]phenyl}-4-(3-methylphenyl)-3-hydroxy-4H-1,2,4-triazole]: 0.01 to 1 µM. The same measure for `CN(Cc1ccco1)C(=O)c1cc(-c2nnc(O)n2-c2ccccc2Cl)c(O)cc1O` [Compound A58, 5-{2,4-Dihydroxy-5-[N-(furan-2-ylmethyl)-N-methylaminocarbonyl]phenyl}-4-(2-chlorophenyl)-3-hydroxy-4H-1,2,4-triazole]: 0.01 to 1 µM. The same measure for `CN(Cc1ccco1)C(=O)c1cc(-c2nnc(O)n2-c2cccc(Cl)c2)c(O)cc1O` [Compound A58a, 5-{2,4-Dihydroxy-5-[N-(furan-2-ylmethyl)-N-methylaminocarbonyl]phenyl}-4-(3-chlorophenyl)-3-hydroxy-4H-1,2,4-triazole]: 0.01 to 1 µM; for `CN(Cc1ccco1)C(=O)c1cc(-c2nnc(O)n2-c2cc(Cl)cc(Cl)c2)c(O)cc1O` [Compound A58b, 5-{2,4-Dihydroxy-5-[N-(furan-2-ylmethyl)-N-methylaminocarbonyl]phenyl}-4-(3,5-dichlorophenyl)-3-hydroxy-4H-1,2,4-triazole]: 0.01 to 1 µM; for `CN(Cc1ccco1)C(=O)c1cc(-c2nnc(O)n2-c2ccc(Cl)cc2)c(O)cc1O` [Compound A58c, 5-{2,4-Dihydroxy-5-[N-(furan-2-ylmethyl)-N-methylaminocarbonyl]phenyl}-4-(4-chlorophenyl)-3-hydroxy-4H-1,2,4-triazole]: 0.01 to 1 µM. With `CN(Cc1ccco1)C(=O)c1cc(-c2nnc(O)n2-c2cccc(F)c2)c(O)cc1O` [Compound A59a, 5-{2,4-Dihydroxy-5-[N-(furan-2-ylmethyl)-N-methylaminocarbonyl]phenyl}-4-(3-fluorophenyl)-3-hydroxy-4H-1,2,4-triazole], the IC50 lay in the range of 0.01 to 1 µM. Turning to `CCc1cccc(-n2c(O)nnc2-c2cc(C(=O)N(C)Cc3ccco3)c(O)cc2O)c1` [Compound A59b, 5-{2,4-Dihydroxy-5-[N-(furan-2-ylmethyl)-N-methylaminocarbonyl]phenyl}-4-(3-ethylphenyl)-3-hydroxy-4H-1,2,4-triazole], the half-inhibitory concentration (IC50) was 0.01 to 1 µM. In the case of `COc1cccc(-n2c(O)nnc2-c2cc(C(=O)N(C)Cc3ccco3)c(O)cc2O)c1` [Compound A62b, 5-{2,4-Dihydroxy-5-[N-(furan-2-ylmethyl)-N-methylaminocarbonyl]phenyl}-4-(3-methoxyphenyl)-3-hydroxy-4H-1,2,4-triazole], the IC50 lay within 0.01 to 1 µM. Under `CCc1ccccc1-n1c(O)nnc1-c1cc(C(=O)N(C)Cc2ccco2)c(O)cc1O` [Compound A62c, 5-{2,4-Dihydroxy-5-[N-(furan-2-ylmethyl)-N-methylaminocarbonyl]phenyl}-4-(2-ethylphenyl)-3-hydroxy-4H-1,2,4-triazole] stands 0.01 to 1 µM; under `COc1cc(O)c(-c2nnc(O)n2-c2ccccc2C)cc1C(=O)N(C)Cc1ccccc1` [Compound A116a, 5-[2-Hydroxy-4-methoxy-5-(N-benzyl-N-methylaminocarbonyl)phenyl]-4-(2-methylphenyl)-3-hydroxy-4H-1,2,4-triazole], 0.01 to 1 µM; under `Cc1ccccc1-n1c(-c2cc(C(=O)N(C)Cc3cccc(OCCN4CCOCC4)c3)c(O)cc2O)n[nH]c1=O` [Compound A116c, 2,4-Dihydroxy-N-methyl-N-[3-(2-morpholin-4-ylethoxy)benzyl]-5-(5-oxo-4-o-tolyl-4,5-dihydro-1H-1,2,4-triazol-3-yl)benzamide], 1 to 10 µM.
